Laboratory results taken from patent publication US5916925A, “Pharmaceutical composition for treatment of dementia” (Takeda Chemical Industries, Ltd., priority 1996, dated 1999).
Several values for one entry are separate records, joined by “and”; a condition that tells them apart may be missing. Equal entries are not always repeated. Structures can show the parent of a compound that is named as a salt. Where two headings read alike, the source gives them in different places.

Legend:
[1] = test system: water maze learning deficit in old rats; assay: Morris water maze learning in old rats; assay type: in vivo, rats of the Fischer 344 strain; details: for average latency to find the platform for all trials, vs control group / water maze learning deficit, overall: idebenone 3 mg/kg, Compound A 0.3 mg/kg, oral, or both
Description: (§1) The old rats were divided into the following four groups.
(§2) Passive avoidance learning tests were started on day 14 of treatment, and Morris water maze learning tests on day 20 of treatment.
In pretraining which was performed for swimming training and motivation for escaping from water, four trials were performed using a water bath, 80 cm in diameter, in a condition that the platform was visible. From the following day, using a water bath, 120 cm in diameter, learning trials, one session (four trials) per day, were performed with the platform being placed below the water.

[2] = test system: passive avoidance learning deficit in old rats; assay: passive avoidance learning in old rats; assay type: in vivo, rats of the Fischer 344 strain; details: idebenone 3 mg/kg, Compound A 0.3 mg/kg, oral, or both; for retention trials, learning deficit: 24 hours after shock loading
Description: as §1, §2
The passive avoidance learning test was performed using a chamber consisting of light and dark compartments. […] After a rat moved to the dark compartment, the rat was kept there for about 10 seconds with the door closed. One to two hours after such habituation trials, acquisition trials were performed.
In acquisition trials, after a rat moved to the dark compartment, a foot shock (0.4 mA, 3 seconds) was given through the grid floor. Retention trials were performed 24 hours after acquisition trials.
In each trial, the latency from opening of the slide door till the animal moved to the dark compartment (step-through latency) was measured.

[3] = test system: patients with senile dementia of Alzheimer's type; assay: double-blind placebo controlled multicenter study, efficacy parameters (ADAS, CGI, NOSGER, SKT); assay type: in vivo, human
Description: (§3) In patients with senile dementia of Alzheimer's type, a double-blind placebo controlled multicenter comparative study was conducted under the conditions shown below.
(§4) (1) Placebo administration
(§5) Oral administration just after every meal

GOT = assay: hepatic clinical laboratory value GOT in patients; assay type: in vivo, human; details: for GOT Level: single patients
Description: as §3
(§6) 451 patients with senile dementia of Alzheimer's type (154 males, 297 females)
as §4, §5
(§7) Clinical laboratory values

[4] = test system: patients with senile dementia of Alzheimer's type; assay: clinical study, safety assessment and dropouts; assay type: in vivo, human; details: for subjects dropped out: subjects in this study (groups not separated)
Description: as §3, §6, §4
Group 3 (placebo administration), 153 patients (54 males, 99 females; average age 70 years)
as §5, §7

GPT = assay: hepatic clinical laboratory value GPT in patients; assay type: in vivo, human; details: for GPT Level: single patients
Description: as §3, §6, §4, §5, §7

[5] = test system: patients with senile dementia of Alzheimer's type; details: 90 mg per day per adult; cited from earlier work
patients = details: cited from earlier work
[6] = 90 mg, 120 mg 3-times-a-day and placebo
[7] = 6 Months of Administration, 90 mg 3 times daily
[8] = 6 Months of Administration, 120 mg 3 times daily
[9] = 270 or 360 mg per day, 6 months, vs placebo
[10] = Pre-administration (baseline), 90 mg 3 times daily group
[11] = Pre-administration (baseline), 120 mg 3 times daily group

Compound: O=C(CCC1CCN(Cc2ccccc2)CC1)c1ccc2c(c1)NCCCC2 [Compound A, 8-[1-oxo-3-(phenylmetyl)piperidin-4-yl]propyl]-2,3,4,5-tetrahydro-1H-1-benzazepine fumarate]
- water maze learning (latency to find the platform) ([1]; day 2 of experiment): significant improvement
- water maze learning (latency to find the platform) ([1]; day 3 of experiment): did not differ from the control group
- average latency to find the platform for all trials, vs control group [1]: did not show significant shortening of average latency compared with the control group
- water maze learning deficit, overall [1]: did not improve water maze learning deficit in old rats
- retention trials, learning deficit [2]: tended to show improvements in learning deficit in old rats but the effect was not significant
- passive avoidance learning deficit, overall [2]: did not improve passive avoidance learning deficit in old rats

Compound: COC1=C(OC)C(=O)C(CCCCCCCCCCO)=C(C)C1=O [idebenone, 6-(10-hydroxydecyl) -2,3-dimethoxy-5-methyl-1,4-benzoquinone]
- ADAS Sum Score, relief compared with placebo ([3]; 90 mg 3-times-a-day, 6 months): significant relief
- ADAS Sum Score, relief compared with placebo ([3]; 90 mg 3-times-a-day, 12 months): significant relief
- ADAS Sum Score, dose dependence of effect ([3]; 90 mg and 120 mg 3-times-a-day, 6 and 12 months): dose dependent
- ADAS Cognitive Score, differences among groups [3, 6]: significant differences among the three groups were noted, with dose dependency
- CGI Global Improvement, differences among groups [3, 6]: significant differences among the three groups were noted, with dose dependency
- CGI Severity of Disease, differences among groups [3, 6]: significant differences among the three groups were noted, with dose dependency
- NOSGER IADL, differences among groups [3, 6]: significant differences among the three groups were noted, with dose dependency
- NOSGER Sum Score, differences among groups [3, 6]: significant differences among the three groups were noted, with dose dependency
- SKT, differences among groups [3, 6]: significant differences among the three groups were noted, with dose dependency
- ADAS Sum Score, relief compared with placebo ([3]; 120 mg 3-times-a-day, 6 months): significant relief
- ADAS Sum Score, relief compared with placebo ([3]; 120 mg 3-times-a-day, 12 months): significant relief
- effect in comparison with published clinical data on tacrine ([3]; 270 mg (90 mg, 3-times-a-day)): better effects
- effect in comparison with published clinical data on tacrine ([3]; 360 mg (120 mg, 3-times-a-day)): better effects
- magnitude of effect, irrespective of assessment method ([3]; 360 mg idebenone administration group): marked effect
- symptom progression ([3]; FIGS. 1 to 7): symptom progression was surely suppressed
- symptom-relieving and symptom progression-suppressing effects, 12 months vs 6 months ([3]; period exceeding 6 months): greater symptom-relieving and symptom progression-suppressing effects are noted at 12 months than at 6 months
- average latency to find the platform for all trials, vs control group [1]: did not show significant shortening of average latency compared with the control group
- water maze learning deficit, overall [1]: did not improve water maze learning deficit in old rats
- water maze learning deficit (latency to find the platform) ([1]; latter period of training, idebenone 3 mg/kg oral): slight tendency toward improvement in water maze learning deficit
- retention trials, learning deficit [2]: tended to show improvements in learning deficit in old rats but the effect was not significant
- passive avoidance learning deficit, overall [2]: did not improve passive avoidance learning deficit in old rats
- GOT Level (GOT; [7]): 45 U/L and 38 U/L and 60 U/L and 86 U/L and 49 U/L and 32 U/L and 47 U/L and 26 U/L and 29 U/L
- GOT Level (GOT; [8]): 41 U/L and 27 U/L and 28 U/L and 34 U/L and 37 U/L and 23 U/L and 131 U/L
- change in GOT level (GOT; [9]): little change in GPT level and GOT level
- GOT Level (GOT; [10]): 19 U/L and 27 U/L and 33 U/L and 32 U/L and 15 U/L and 29 U/L and 13 U/L and 22 U/L
- GOT Level (GOT; [11]): 23 U/L and 24 U/L and 29 U/L and 21 U/L and 25 U/L
- incidence and severity of accompanying symptoms ([4]; 90 mg and 120 mg 3-times-a-day vs placebo): No differences were noted among the three groups
- subjects dropped out ([4]; by 6 months): 9%
- subjects dropped out ([4]; by 12 months): about 15%
- elevation of clinical laboratory values (GOT and GPT) ([4]; idebenone administration groups): very low
- major objective and subjective symptoms ([4]; three groups together): vertigo, anorexia, sleep disturbance and arthralgia
- GPT Level (GPT; [7]): 61 U/L and 54 U/L and 34 U/L and 43 U/L and 26 U/L and 37 U/L and 35 U/L and 50 U/L
- GPT Level (GPT; [8]): 26 U/L and 39 U/L and 43 U/L and 55 U/L and 25 U/L and 38 U/L and 60 U/L
- change in GPT level (GPT; [9]): little change in GPT level and GOT level
- GPT Level (GPT; [10]): 25 U/L and 34 U/L and 36 U/L and 63 U/L and 9 U/L and 14 U/L and 29 U/L and 33 U/L
- GPT Level (GPT; [11]): 22 U/L and 14 U/L and 28 U/L and 29 U/L and 37 U/L and 31 U/L
- efficacy in senile dementia of Alzheimer's type [5]: effective

Compound: Nc1c2c(nc3ccccc13)CCCC2 [tacrine]
- patients who withdrew from the treatment (patients; 30-week administration of tacrine): 74%
- subjects dropped out (patients; high-dose tacrine group, by 30 weeks): 74%
- subjects dropped out (patients; low-dose tacrine group, until final administration by 30 weeks): 59%
- subjects dropped out (patients; moderate-dose tacrine group, by 30 weeks): 71%
- dropouts or discontinuations due to adverse reactions (patients; tacrine, study period): a large number of dropouts or discontinuations occurred due to adverse reactions
- adverse effects on long-term administration (patients; tacrine): hepatic toxicity
